Measurements taken from patent US8242105B2, “Structural mimetics of proline-rich peptides and the pharmaceutical use thereof” (priority 2006, dated 2012).
No end group written: not given here.

Tests used:
VASP/EVH1 domain [1] = target: T1, VASP/EVH1 domain (Homo sapiens, UniProt P50552); assay: Fluorescence titration of ligand peptides; format: binding
T1 construct: the EVH1 domain of a completely ^15N-labelled VASP protein
Procedure: Using the synthetic compound 85, ligand peptides with partially or completely replaced proline sequences were synthesized and investigated for their interaction with the EVH1 domain (pp=building block 85). […] The binding affinities were determined using NMR titration, the kinetic Biacore method, or by means of fluorescence titration.

VASP/EVH1 domain [2] = target: T1, VASP/EVH1 domain; assay: NMR titration (15N-1H-HSQC) of the VASP/EVH1 domain with ligand peptide; settings: Binding affinity (NMR), VASP/EVH1 domain in solution; KD from change in chemical shift versus ligand peptide concentration
Procedure: The interactions between the EVH1 domain of a completely ^15N-labelled VASP protein and the ligand peptides I and II was elucidated using multidimensional NMR-spectroscopic methods. To this end, the EVH1 domain in a solution was titrated with varying amounts of ligand peptide and investigated by recording ^15N-^1H-HSQC-NMR spectra each time. In the event of positive binding interaction, increasing the ligand concentration step by step (10, 20, 50, 100, 200, 500 and 1000 μM) results in a clearly recognizable shift of some domain signals, which can be used to calculate values for the binding constant at a later point in time.
A continuous equilibrium, i.e. [EVH1]-ligand (bound) ? [EVH1]+ligand (unbound), is present in solution so that, depending on the rate of interchange of the ligands, different NMR spectra are obtained (in analogy to the signals of —OH and —NH in the one-dimensional range).
When correlating the changes in the chemical shift of the cross-peaks with the binding strength between domain and ligand peptide, it is possible to calculate values for the binding constant by plotting the change in shift Δδ versus the ligand peptide concentration.

VASP/EVH1 domain [3] = target: T1, VASP/EVH1 domain; assay: Biacore (surface plasmon resonance) binding of ligand peptides; settings: Binding affinity (Biacore), initial measurements yet remaining to be verified
Excerpt: In this method the domain protein is immobilized on the surface of a sensor chip, while a solution of ligand peptide flows across the surface. By measuring the surface plasmon resonance that causes the refractive index to change, it is possible to monitor the binding kinetics in real-time so that the association and dissociation constants can also be determined.

VASP/EVH1 domain [4] = target: T1, VASP/EVH1 domain; format: binding
Excerpt: This can be seen in FIG. 2 wherein the class I EVH1 domain of the human VASP protein was investigated together with a short section from the ActA peptide (332[sequence]344).
(§1) Using a series of different test ligand peptides, it was also possible to gain an overview over the binding affinities.

Mena/EVH1 domain = Mena/EVH1 domain (Homo sapiens, UniProt Q8N8S7); assay: biochemical
Mena/EVH1 domain, sequence (Q8N8S7 1-111 limits assumed): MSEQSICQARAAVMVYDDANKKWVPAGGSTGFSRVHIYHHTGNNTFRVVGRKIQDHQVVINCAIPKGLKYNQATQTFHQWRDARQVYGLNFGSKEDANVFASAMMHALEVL
Excerpt: as §1

T1 sequence (P50552 2-113): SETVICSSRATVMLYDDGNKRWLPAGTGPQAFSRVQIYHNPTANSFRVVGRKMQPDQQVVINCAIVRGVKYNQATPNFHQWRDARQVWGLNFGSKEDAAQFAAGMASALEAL

Compound | Kd (VASP/EVH1 domain [1]) [µM] | further results
CC(C)C[C@H](NC(=O)[C@H](CCC(=O)O)NC(=O)[C@H](CC(=O)O)NC(=O)[C@H](CCC(=O)O)NC(=O)[C@@H](NC(=O)[C@@H]1CCCN1C(=O)[C@@H]1CCCN1C(=O)[C@@H]1CC[C@@H]2C=C[C@H]3CCN(C(=O)[C@H](Cc4ccccc4)NC(=O)[C@H](CCC(=O)O)NC(=O)[C@H](Cc4ccccc4)NC(=O)[C@@H](N)CO)[C@@H]3C(=O)N21)[C@@H](C)O)C(=O)O [SFEFppPPTEDEL] | 82 ± 30 | –
CC(C)C[C@H](NC(=O)[C@H](CCC(=O)O)NC(=O)[C@H](CC(=O)O)NC(=O)[C@H](CCC(=O)O)NC(=O)[C@@H](NC(=O)[C@@H]1CC[C@@H]2C=C[C@H]3CCN(C(=O)[C@@H]4CC[C@@H]5C=C[C@H]6CCN(C(=O)[C@H](Cc7ccccc7)NC(=O)[C@H](CCC(=O)O)NC(=O)[C@H](Cc7ccccc7)NC(=O)[C@@H](N)CO)[C@@H]6C(=O)N54)[C@@H]3C(=O)N21)[C@@H](C)O)C(=O)O [SFEFppppTEDEL] | 45 ± 15 | –
CC(C)C[C@H](NC(=O)[C@H](CCC(=O)O)NC(=O)[C@H](CC(=O)O)NC(=O)[C@H](CCC(=O)O)NC(=O)[C@@H](NC(=O)[C@@H]1CCCN1C(=O)[C@@H]1CC[C@@H]2C=C[C@H]3CCN(C(=O)[C@@H]4CCCN4C(=O)[C@H](Cc4ccccc4)NC(=O)[C@H](CCC(=O)O)NC(=O)[C@H](Cc4ccccc4)NC(=O)[C@@H](N)CO)[C@@H]3C(=O)N21)[C@@H](C)O)C(=O)O [SFEFPppPTEDEL] | 47 ± 14 | Kd (VASP/EVH1 domain [2]): 20 to 35 µM; Kd (VASP/EVH1 domain [3]): 29.3 to 33.3 µM
CC(C)C[C@H](NC(=O)[C@H](CCC(=O)O)NC(=O)[C@H](CC(=O)O)NC(=O)[C@H](CCC(=O)O)NC(=O)[C@@H](NC(=O)[C@@H]1CC[C@@H]2C=C[C@H]3CCN(C(=O)[C@@H]4CCCN4C(=O)[C@@H]4CCCN4C(=O)[C@H](Cc4ccccc4)NC(=O)[C@H](CCC(=O)O)NC(=O)[C@H](Cc4ccccc4)NC(=O)[C@@H](N)CO)[C@@H]3C(=O)N21)[C@@H](C)O)C(=O)O [SFEFPPppTEDEL] | 26 ± 5 | –
FPPPPT [FPPPPT] | – | binding affinity KD (VASP/EVH1 domain [4]): no measurable affinity; Kd (Mena/EVH1 domain): 417 µM
